Data published in paper PMC7249006, “Discovery of Novel Pyridazine-Based Cyclooxygenase-2 Inhibitors with a Promising Gastric Safety Profile” (Molecules, 2020).
Entries after “also recorded” stand apart in the source; their conditions may differ.

How the values were obtained:
gastric mucosa = experiment: Lipid peroxidation studies (MDA content of gastric mucosa, TBA method); settings: gastric mucosa after the ulcerogenic activity test, 10 mg/kg orally
Description: A decrease in the MDA content is a measure to assess the non-ulcerogenic effect of a compound.
The obtained mixture was extracted with a 5-mL mixture (15:1 v/v) of n-butanol and pyridine and centrifuged at 4000 rpm for 10 min. […] A standard linear curve (absorbance vs. concentration in nM) was prepared using MDA tetrabutylammonium salt. The lipid peroxidation was calculated from the standard curve. The results are expressed as nmol MDA 100 mg^−1 tissues.

[1] = target: T1, (Ovis aries, UniProt P05979); experiment: In vitro COX-1 inhibition assay (Cayman kit 560131, ELISA); format: biochemical, human; settings: N = 3, Mean ± SD
T1 construct: purchased Cayman Chemicals 560131
T1 sequence (P05979 25-600): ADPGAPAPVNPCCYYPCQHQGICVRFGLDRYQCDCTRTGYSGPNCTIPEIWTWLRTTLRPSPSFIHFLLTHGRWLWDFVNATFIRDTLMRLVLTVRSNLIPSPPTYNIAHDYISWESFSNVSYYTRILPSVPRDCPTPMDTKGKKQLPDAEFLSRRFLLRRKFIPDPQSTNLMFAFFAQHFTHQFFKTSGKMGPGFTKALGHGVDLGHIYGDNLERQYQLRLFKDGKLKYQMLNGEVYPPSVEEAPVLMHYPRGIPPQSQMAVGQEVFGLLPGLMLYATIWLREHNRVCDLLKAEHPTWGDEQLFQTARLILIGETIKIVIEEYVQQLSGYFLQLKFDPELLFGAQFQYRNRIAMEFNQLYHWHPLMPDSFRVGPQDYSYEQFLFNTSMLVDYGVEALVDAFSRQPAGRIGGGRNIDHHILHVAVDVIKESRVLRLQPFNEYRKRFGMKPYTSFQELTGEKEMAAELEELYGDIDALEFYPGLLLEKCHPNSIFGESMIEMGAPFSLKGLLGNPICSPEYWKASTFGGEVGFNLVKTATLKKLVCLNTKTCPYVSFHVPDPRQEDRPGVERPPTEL
Description: (§1) The supplier’s instructions were followed to prepare the reagents as well as to perform the experiment. Briefly, samples (20 μL), the COX-1 and COX-2 enzyme (10 μL), and heme (10 μL) were mixed with the buffer solution (160 μL), which was supplied with the kits. […] A saturated solution of stannous chloride (30 μL) was added after 2 min to halt the COX reaction. The resultant mixture was incubated at ambient temperature for 5 min. The Prostaglandin-2α (PGF2α) developed after the COX reaction was measured through ELISA. […] The plate was washed to get rid of the unbound components. […] The IC50 values of COX-1 and COX-2 were determined by the regression analysis.

human COX-2 = target: T2, human COX-2 (Homo sapiens, UniProt P35354); experiment: In vitro COX-2 inhibition assay (Cayman kit 560131, ELISA); format: biochemical; settings: for IC50: N = 3, Mean ± SD; for SI (Selectivity index): IC50 for COX-1/IC50 for COX-2; for %SI: selectivity index normalized to celecoxib = 100%
T2 construct: purchased Cayman Chemicals 560131
T2 sequence (P35354 18-604): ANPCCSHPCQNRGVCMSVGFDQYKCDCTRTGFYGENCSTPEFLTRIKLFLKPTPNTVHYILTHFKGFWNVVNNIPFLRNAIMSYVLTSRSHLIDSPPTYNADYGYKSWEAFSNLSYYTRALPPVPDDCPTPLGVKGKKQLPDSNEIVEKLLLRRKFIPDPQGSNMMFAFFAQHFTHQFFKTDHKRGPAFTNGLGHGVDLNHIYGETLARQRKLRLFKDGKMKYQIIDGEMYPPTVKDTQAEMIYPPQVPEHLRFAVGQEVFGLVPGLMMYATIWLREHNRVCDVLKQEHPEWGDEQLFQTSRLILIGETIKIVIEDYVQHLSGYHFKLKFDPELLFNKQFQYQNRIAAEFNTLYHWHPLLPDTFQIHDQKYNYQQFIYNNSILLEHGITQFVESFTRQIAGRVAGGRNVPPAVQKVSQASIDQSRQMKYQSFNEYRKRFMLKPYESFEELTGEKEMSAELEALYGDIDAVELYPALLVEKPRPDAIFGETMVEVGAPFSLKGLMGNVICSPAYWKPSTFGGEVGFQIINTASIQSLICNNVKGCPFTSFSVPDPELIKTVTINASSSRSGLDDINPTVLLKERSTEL
Description: as §1

gastric ulcers in rats = experiment: Gastric ulcerogenic activity; settings: 10 mg/kg orally; for ulcerogenic effect (in words): rats; for Score: No of Gastric Ulcers / Score: Severity Lesions: rats fasted 18 h, sacrificed after 4 h, Mean ± SE
Description: A total of eight groups of rats were utilized, wherein each group comprised of six rats.
The eight groups of rats were fasted for 18 h, wherein each group consisted of 6 rats. […] Saline solution (1 mL) was given to the control group. The animals were sacrificed after 4 h to isolate their stomachs. A longitudinal cut was made along the greater curvature, and the presence of ulcers was evaluated. The counting of ulcers was marked as 0 (no ulcer) to 5 (≥ 3 ulcers) [30].

Compound | IC50 [1] | melting point | IC50 (human COX-2) | SI (Selectivity index) (human COX-2) | %SI (human COX-2) | MDA Content in nmol (100 mg Tissue) (gastric mucosa) | ulcerogenic effect (in words) (gastric ulcers in rats) | Score: No of Gastric Ulcers (gastric ulcers in rats) | Score: Severity Lesions (gastric ulcers in rats)
Cc1ccc(-c2cc(C(F)(F)F)nn2-c2ccc(S(N)(=O)=O)cc2)cc1 [Celecoxib, celecoxib, reference compound] | – | – | – | – | – | 6.11 ± 0.50 nmol (100 mg Tissue) | – | – | –
O=C1CSC(=NN=Cc2ccc(-n3nc(-c4ccccc4)ccc3=O)cc2)N1c1ccccc1 [Compound 17, 2-((4-(6-oxo-3-phenylpyridazin-1(6H)-yl)benzylidene)hydrazineylidene)-3-phenyl thiazolidin-4-one] | 285 ± 0.16 nM | – | 17.7 ± 0.18 nM | – | – | 4.11 ± 0.18 nmol (100 mg Tissue) | insignificant ulcerogenic effects | 0.42 ± 0.10 | 0.20 ± 0.50
COC(=O)C=C1SC(=NN=Cc2ccc(-n3nc(-c4ccccc4)ccc3=O)cc2)N(c2ccccc2)C1=O [Compound 18, Methyl2-(4-oxo-2-((4-(6-oxo-3-phenylpyridazin-1(6H)-yl)benzylidene)hydrazinylidene) -3-phenylthiazolidin-5-ylidene)acetate] | 255 ± 0.2 nM | – | 23.1 ± 0.5 nM | 11.01 | 61.23% | – | – | – | –
COc1ccc2c(c1)c(CC(=O)O)c(C)n2C(=O)c1ccc(Cl)cc1 [Indomethacin, indomethacin, reference compound] | – | – | – | – | – | 8.90 ± 0.18 nmol (100 mg Tissue) | – | – | –
O=C1N=C(NN=Cc2ccc(-n3nc(-c4ccccc4)ccc3=O)cc2)SC1=C1C(=O)Nc2ccccc21 [Compound 12, 2-(2-(4-(6-oxo-3-phenylpyridazin-1(6H)-yl)benzylidene)hydrazineyl)-5-(2-oxoindolin-3-ylidene) thiazol-4(5H)-one] | 295 ± 0.28 nM | – | 17.1 ± 0.19 nM | – | – | 2.95 ± 0.44 nmol (100 mg Tissue) | No ulcerogenic effects; also recorded: did not produce any ulcerogenic impact; also recorded: devoid of any ulcerogenic effect | 0 | 0
CN(C)C=C1SC(NN=Cc2ccc(-n3nc(-c4ccccc4)ccc3=O)cc2)=NC1=O [Compound 11, 5-((dimethylamino)methylene)-2-(2-(4-(6-oxo-3-phenylpyridazin-1(6H)-yl)benzylidene) hydrazineyl) thiazol-4(5H)-one] | 270 ± 0.24 nM | – | 25.11 ± 0.11 nM | 10.75 | 59.78% | – | – | – | –
COC(=O)C=C1SC(=NN=Cc2ccc(-n3nc(-c4ccccc4)ccc3=O)cc2)NC1=O [Compound 10, Methyl2-(4-oxo-2-((4-(6-oxo-3-phenylpyridazin-1(6H)-yl)benzylidene)hydrazineylidene) -thiazolidin-5-ylidene)acetate] | 285 ± 0.15 nM | – | 22.1 ± 0.55 nM | 12.89 | 71.69% | – | – | – | –
CCOC(=O)c1sc(N/N=C/c2ccc(-n3nc(-c4ccccc4)ccc3=O)cc2)nc1C [Compound 8, Ethyl 4-methyl-2-(2-(4-(6-oxo-3-phenylpyridazin-1(6H)-yl)benzylidene)hydrazineyl) thiazole-5-carboxylate] | 250 ± 0.12 nM | 245 to 246 °C | 24.18 ± 0.14 nM | 10.33 | 57.45% | – | – | – | –

More lines, main results first:

IC50 [1] | melting point | IC50 (human COX-2) | SI (Selectivity index) (human COX-2) | %SI (human COX-2) | Compound | MDA Content in nmol (100 mg Tissue) (gastric mucosa) | ulcerogenic effect (in words) (gastric ulcers in rats) | Score: No of Gastric Ulcers (gastric ulcers in rats) | Score: Severity Lesions (gastric ulcers in rats)
275 ± 0.42 nM | 261 to 262 °C | 17.5 ± 0.6 nM | – | – | O=c1ccc(-c2ccccc2)nn1-c1ccc(C=NNc2nc(-c3ccc(Br)cc3)cs2)cc1 [Compound 9b, 2-(4-((2-(4-(4-Bromophenyl)thiazol-2-yl)hydrazineylidene)methyl)phenyl)-6-phenylpyridazin-3(2H)-one] | 3.89 ± 0.50 nmol (100 mg Tissue) | insignificant ulcerogenic effects | 0.33 ± 0.38 | 0.26 ± 0.16
315 ± 0.33 nM | > 300 °C | 16.9 ± 0.16 nM | – | – | COc1ccc(/C=C2\SC(N/N=C/c3ccc(-n4nc(-c5ccccc5)ccc4=O)cc3)=NC2=O)cc1 [Compound 16b, 5-(4-Methoxybenzylidene)-2-(2-(4-(6-oxo-3-phenylpyridazin-1(6H)-yl)benzylidene)hydra-zineyl)thiazol-4(5H)-one] | 3.45 ± 0.28 nmol (100 mg Tissue) | insignificant ulcerogenic effects | 0.12 ± 0.30 | 0.18 ± 0.22
260 ± 0.22 nM | 250 to 252 °C | 25.1 ± 0.15 nM | 10.35 | 57.56% | O=C1CSC(NN=Cc2ccc(-n3nc(-c4ccccc4)ccc3=O)cc2)=N1 [Compound 6a, 2-(2-(4-(6-Oxo-3-phenylpyridazin-1(6H)-yl)benzylidene)hydrazineyl)thiazol-4(5H)-one] | – | – | – | –
280 ± 0.5 nM | 285 to 286 °C | 22.75 ± 0.1 nM | 12.30 | 68.40% | CC1SC(NN=Cc2ccc(-n3nc(-c4ccccc4)ccc3=O)cc2)=NC1=O (stereo not drawn) [Compound 6b, 5-Methyl-2-(2-(4-(6-oxo-3-phenylpyridazin-1(6H)-yl)benzylidene)hydrazineyl)thiazol-4(5H)-one] | – | – | – | –
330 ± 0.28 nM | 280 to 281 °C | 15.5 ± 0.55 nM | – | – | O=c1ccc(-c2ccccc2)nn1-c1ccc(C=NNc2nc(-c3ccccc3)cs2)cc1 [Compound 9a, 6-Phenyl-2-(4-((2-(4-phenylthiazol-2-yl)hydrazinylidene)methyl)phenyl)pyridazin-3(2H)-one] | 3.05 ± 0.12 nmol (100 mg Tissue) | No ulcerogenic effects; also recorded: did not produce any ulcerogenic impact; also recorded: devoid of any ulcerogenic effect | 0 | 0
235 ± 0.11 nM | 235 to 236 °C | 26.2 ± 0.5 nM | 8.97 | 49.88% | NN=Cc1ccc(-n2nc(-c3ccccc3)ccc2=O)cc1 [Compound 4a, 2-(4-(Hydrazineylidenemethyl)phenyl)-6-phenylpyridazin-3(2H)-one] | – | – | – | –
275 ± 0.1 nM | 297 to 298 °C | 22.2 ± 0.44 nM | 12.40 | 68.96% | O=C1N=C(N/N=C/c2ccc(-n3nc(-c4ccccc4)ccc3=O)cc2)S/C1=C\c1ccc(Cl)cc1 [Compound 16a, 5-(4-Chlorobenzylidene)-2-(2-(4-(6-oxo-3-phenylpyridazin-1(6H)-yl)benzylidene)-hydra-zinyl)thiazol-4(5H)-one] | – | – | – | –
